Measured values: patent US20260365641A1, “Aromatic Acetylene Derivative, Preparation Method Therefor, And Use Thereof” (Zhejiang Hisun Pharmaceutical Co., Ltd., priority 2022, published 2026)

Target: T1, recombinant Pseudomonas aeruginosa LpxC (Pseudomonas aeruginosa, UniProt P47205)
T1 construct: purchased Signalway Antibody AP74647-2
T1 sequence (P47205 1-303): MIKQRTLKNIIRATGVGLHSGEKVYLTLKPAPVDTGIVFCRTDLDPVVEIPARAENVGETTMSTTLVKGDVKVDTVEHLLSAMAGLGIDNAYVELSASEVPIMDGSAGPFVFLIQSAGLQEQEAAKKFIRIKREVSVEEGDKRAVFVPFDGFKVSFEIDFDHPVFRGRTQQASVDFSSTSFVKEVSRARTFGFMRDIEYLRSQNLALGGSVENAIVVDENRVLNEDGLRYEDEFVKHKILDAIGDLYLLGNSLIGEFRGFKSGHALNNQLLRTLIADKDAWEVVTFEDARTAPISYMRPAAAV
Test: Inhibition of enzymatic activity of recombinant Pseudomonas aeruginosa LpxC in vitro
Type: biochemical
Details: 5 nM LpxC; substrate UDP-3-O—(R-3-hydroxydecanoyl)-GlcNAc; 25 °C, 120 minutes; fluorescamine readout
Description: The following method was used to determine degrees of inhibition of the compounds of the present invention on the enzymatic activity of recombinant Pseudomonas aeruginosa LpxC in vitro.
The test process was briefly described as follows: the tested compound was first dissolved in DMSO to prepare a 10 mM storage solution. The reaction was carried out in a 96-well microplate. Firstly, 20 μL of recombinant Pseudomonas aeruginosa LpxC (purchased from Signalway Antibody, article number AP74647-2) was added into the wells, and the final concentrations were 5 nM respectively. 5 μL of the compound to be tested was added, diluted in 4-fold, with 8 concentration points, and the concentration range was 0.61-10000 nM. 5 μL of LpxC substrate UDP-3-O—(R-3-hydroxydecanoyl)-GlcNAc (purchased from Biosynth Carbosynth, article number mu75071) was added, wherein a final concentration of the substrate was […], and the substrate was incubated at 25 °C for 120 minutes. Subsequently, 20 μL of 2.0 mg/mL fluorescamine (purchased from sigma aldrich, article number F9015, wherein a solvent was dimethylformamide/acetonitrile (1:1)) was added to the reaction system, mixed evenly and reacted for 10 minutes. Finally, 50 μL of 200 mM sodium phosphate buffer solution (pH 8.0) was added to stop the reaction, and a microplate reader (BMG) was used for reading. An excitation wavelength and an emission wavelength were 390 nm and 495 nm respectively. Compared with the fluorescence intensity ratio of a control group (0.1% DMSO), the percentage inhibition rates of the compounds at each concentration were calculated, and the IC50 values of the compounds were obtained by performing nonlinear regression analysis with logarithmic value of the compound concentration-inhibition rate by GraphPad Prism 5 software, which can be seen in Table 1.

Compound	IC50 [nM]
C[C@H](O)c1nccn1Cc1cc(-c2ccc(C#CC3CC4(CCNCC4)C3)cc2)on1 [Example 1, (S)-1-(1-((5-(4-((7-azaspiro[3.5]nonan-2-yl)ethynyl)phenyl)isoxazol-3-yl)methyl)-1H-imidazol-2-yl)ethan-1-ol]	9.46
C[C@H](O)c1nccn1Cc1cc(-c2ccc(C#CC3CC4(CCN(CCCC(=O)O)C4)C3)cc2)on1 (stereo partly drawn) [Example 4, (S)-4-(2-((4-(3-((2-(1-hydroxyethyl)-1H-imidazol-1-yl)methyl)isoxazol-5-yl)phenyl)ethynyl)-6-azaspiro[3.4]octan-6-yl)butanoic acid]	23.4
C[C@H](O)c1nccn1Cc1cc(-c2ccc(C#CC3CC4(CCN(CCC(=O)O)CC4)C3)cc2)on1 [Example 5, (S)-3-(2-((4-(3-((2-(1-hydroxyethyl)-1H-imidazol-1-yl)methyl)isoxazol-5-yl)phenyl)ethynyl)-7-azaspiro[3.5]nonan-7-yl)propanoic acid]	7.03
C[C@H](O)c1nccn1Cc1cc(-c2ccc(C#CC3CC4(CCN(CCCC(N)=O)CC4)C3)cc2)on1 [Example 8, (S)-4-(2-((4-(3-((2-(1-hydroxyethyl)-1H-imidazol-1-yl)methyl)isoxazol-5-yl)phenyl)ethynyl)-7-azaspiro[3.5]nonan-7-yl)butanamide]	19.3
C[C@H](O)c1nccn1Cc1cc(-c2ccc(C#CC3CC4(CCN(CCC(N)=O)CC4)C3)cc2)on1 [Example 9, (S)-3-(2-((4-(3-((2-(1-hydroxyethyl)-1H-imidazol-1-yl)methyl)isoxazol-5-yl)phenyl)ethynyl)-7-azaspiro[3.5]nonan-7-yl)propanamide]	18.8
C[C@H](O)c1nccn1Cc1cc(-c2ccc(C#CC3CC4(CCN(CC(=O)O)CC4)C3)cc2)on1 [Example 10, (S)-2-(2-((4-(3-((2-(1-hydroxyethyl)-1H-imidazol-1-yl)methyl)isoxazol-5-yl)phenyl)ethynyl)-7-azaspiro[3.5]nonan-7-yl)acetic acid]	22.8
C[C@H](O)c1nccn1Cc1cc(-c2ccc(C#CC3CC4(CCN(CCO)CC4)C3)cc2)on1 [Example 11, (S)-2-(2-((4-(3-((2-(1-hydroxyethyl)-1H-imidazol-1-yl)methyl)isoxazol-5-yl)phenyl)ethynyl)-7-azaspiro[3.5]nonan-7-yl)ethan-1-ol]	8.66
C[C@H](O)c1nccn1Cc1cc(-c2ccc(C#CC3CC4(CCN(C(=O)CC(=O)O)CC4)C3)cc2)on1 [Example 14, (S)-3-(2-((4-(3-((2-(1-hydroxyethyl)-1H-imidazol-1-yl)methyl)isoxazol-5-yl)phenyl)ethynyl)-7-azaspiro[3.5]nonan-7-yl)-3-oxopropanoic acid]	6.81
C[C@H](O)c1nccn1Cc1cc(-c2ccc(C#CC3CC4(CCN(C(=O)CC(N)=O)CC4)C3)cc2)on1 [Example 15, (S)-3-(2-((4-(3-((2-(1-hydroxyethyl)-1H-imidazol-1-yl)methyl)isoxazol-5-yl)phenyl)ethynyl)-7-azaspiro[3.5]nonan-7-yl)-3-oxopropanamide]	4.42
C[C@H](O)c1nccn1Cc1cc(-c2ccc(C#CC3CC4(CCN(C(=O)CN)CC4)C3)cc2)on1 [Example 16, (S)-2-amino-1-(2-((4-(3-((2-(1-hydroxyethyl)-1H-imidazol-1-yl)methyl)isoxazol-5-yl)phenyl)ethynyl)-7-azaspiro[3.5]nonan-7-yl)ethan-1-one]	10.3
C[C@H](O)c1nccn1Cc1cc(-c2ccc(C#CC3CC4(CCN(C(=O)[C@@H](N)CO)CC4)C3)cc2)on1 [Example 18, (S)-2-amino-3-hydroxy-1-(2-((4-(3-((2-((S)-1-hydroxyethyl)-1H-imidazol-1-yl)methyl)isoxazol-5-yl)phenyl)ethynyl)-7-azaspiro[3.5]nonan-7-yl)propan-1-one]	4.42
C[C@H](O)c1nccn1Cc1cc(-c2ccc(C#CC3CC4(CCN(C(N)=O)C4)C3)cc2)on1 (stereo partly drawn) [Example 24, (S)-2-((4-(3-((2-(1-hydroxyethyl)-1H-imidazol-1-yl)methyl)isoxazol-5-yl)phenyl)ethynyl)-6-azaspiro[3.4]octane-6-carboxamide]	6.9
